Read-outs that look alike come from different tables or passages of the source.

The nature of series [1]: Food effect study (FES), 150 mg single dose fed vs fasted, pharmacokinetics in healthy subjects, plasma. The conditions noted are these: for Cmax / AUC(0-t): po, 150 mg, FES 150 mg single oral dose, geometric mean (CV%); for AUC(0-t): read-out: AUC(0-24). It counts as in vivo, human. How it is done:
This was a single-centre, double-blind, randomised, placebo-controlled single ascending dose (SAD) and multiple ascending dose (MAD) study of anle138b in doses of up to 300 mg per day in healthy subjects. In addition, the effect of food (FES) on the PK of anle138b in healthy subjects was examined using single doses of 150 mg. Participants were recruited from Quotient Sciences (Nottingham, UK) volunteer database.
This dose was administered either i) after a standard FDA-approved high-fat breakfast or ii) in the fasted state i.e., fasted from all food and drink (except water) for a minimum of 8 h prior to dosing. In total, one cohort of 12 subjects was randomised in a 1:1 ratio to 2 treatment sequences (fed→fasted) or (fasted→fed). A minimum washout of at least 5 half-lives of anle138b between each dose was assured.
Secondary outcome measures were the oral PK of single (SAD) and multiple (MAD) ascending doses of anle138b in the fasted state as well as the effect of co-administration with food on the PK of anle138b. To this end PK blood samples were taken at day 1 (and for MAD day 7) pre-dose and at 0·5, 1, 1·5, 2, 3, 4, 6, 8, 10, 12, 16 and 20 h post-dose, at days 2 to 6 pre-dose only (MAD) and 24, 30, 36 and 48 h post final dose. Analysis of anle138b in plasma was done at Aptuit, an Evotec company, in Verona, Italy. Time point of last quantifiable data was seen to increase with an increase in dose as follows: SAD: from the 50mg dose (subjects ranged between 8-24h) to the 300mg dose (subjects ranged between 36-48h). MAD: from the 100mg dose (subjects ranged between 8-36h) to the 300mg dose (subjects ranged between 20-48h). In FES, subjects ranged between 24-48h.
The study was exploratory and no formal sample size calculation was made. Based on experience from previous studies of similar design, eight subjects per cohort were enrolled for parts 1 (SAD) and 2 (MAD) and a total of twelve subjects for part 3 (FES). Populations and analysis sets were determined for safety and PK data after database lock using the criteria defined in the reporting and analysis plan. The safety population and safety analysis set for SAD and MAD were defined after database lock but prior to study unblinding. Statistical analysis and production of summary tables, figures and listings for all safety data (AEs, vital signs, ECGs and safety laboratory assessments) including changes from baseline as required in this study were performed using the statistical package SAS (v9·4). Additional statistics was provided for PK-related data including coefficient of variation (CV%), geometric mean, geometric CV%, and the number n of subjects that were included in the natural logarithmic transformation). In SAD and MAD, dose proportionality was assessed. Formal statistical analysis was performed on the log-transformed PK parameters AUC(0-last), AUC(0-inf), and Cmax for SAD (day 1), and AUC(0-tau) and Cmax for MAD (day 1 and day 7) to assess dose proportionality using the following power model: loge (AUC or Cmax) = µ + βx loge (dose). The estimate obtained for β is a measure of dose proportionality. The estimate of β together with its 90% confidence interval (CI) (βl, βu) was used to quantify the degree of non-proportionality. In MAD, formal statistical analysis was performed on the PK parameters AUC(0-tau) and Cmax to assess dose accumulation. Log-transformed AUC(0-tau) and Cmax was subjected to a mixed-effects model with treatment (dose level), day (day 1 or 7) and treatment-by-day interaction as fixed effects and subject as a random effect. The adjusted means obtained from the model, including differences for each comparison of interest and the associated 90% CIs, was back-transformed on the log scale to obtain adjusted geometric means, adjusted geometric mean ratios (GMRs) and 90% CIs of the ratio. The GMRs and 90% CIs were provided for each treatment and overall, i.e., day 7/day 1. […]

Series [2] in a line: 28-day cynomolgus monkey toxicity study. The conditions noted are these: in vivo; for Cmax: 125 mg/kg/day, read-out: Cmax at NOAEL. The source says:
(§1) This trial followed the recommendations of the EMA (European Medicines Agency) (EMEA/CHMP/SWP/28367/07 Rev. 1; 20 July 2017) and the FDA (Food and Drug Administration) (Guidance for Industry: Estimating the Maximum Safe Starting Dose in Initial Clinical Trials for Therapeutics in Adult Healthy Volunteers. U.S. Department of Health and Human Services Food and Drug Administration Center for Drug Evaluation and Research (CDER) July 2005) for dose finding in a first-in-human study. The safe starting dose was set based on toxicity studies in animals. In a 28-day toxicity study in rats, the no-observed-adverse-effect-level (NOAEL) was determined to be 50 mg/kg/day (human equivalent dose of 8·1 mg/kg using the FDA factor of 6·2 according to the FDA Guidance for Industry “Estimating the Maximum Safe Starting Dose in Initial Clinical Trials for Therapeutics in Adult Healthy Volunteers”). Cmaxǀexposure at 50 mg in males were 2460ǀ25600 and in females 2680ǀ21700 ng/mL ǀ ng*h/mL. In a 28-day cynomolgus monkey toxicity study, the NOAEL was 125 mg/kg/day (human equivalent dose of 40·3 mg/kg). Cmaxǀexposure at 125 mg/kg/day were 3170ǀ15700 (males) and 2720ǀ9720 (females) ng/mL ǀ ng*h/mL. Based upon these NOAELs a safe starting dose derived from the more sensitive species (rat) was calculated using a safety factor of 10 (i.e., 0·8 mg/kg), which corresponds to a dose of approximately 50 mg assuming a body weight of 60 kg. […] Escalation between doses was planned to be flexible depending on emerging results but not to exceed an increment of 2-fold.

The nature of series [3]: 28-day toxicity study in rats. The settings on record: rat, in vivo; for Cmax: at 50 mg, read-out: Cmax at NOAEL.
Source text: as §1

Setting [4] is: human, plasma, fed (high-fat breakfast).

As for `Brc1cccc(-c2cc(-c3ccc4c(c3)OCO4)n[nH]2)c1` [anle138b, 3-(1,3-benzodioxol-5-yl)-5-(3-bromophenyl)-1H-pyrazole], the “Time point of last quantifiable data (range of subjects)” value in series [1] (FES 150 mg) was 24 to 48 h. For the same compound, the “Effect of food on Cmax” value in series [1] (FES 150 mg, fed vs fasted) is listed as “decreased by about half”. In series [1] (FES 150 mg, fed vs fasted), the “Food effect on AUC” value is “clinically insignificant”. Besides, the bioavailability in series [1] (human, plasma, oral, FES 150 mg, 90% CI: 61%, 88%, read-out: Dose bioavailable in the fed state compared to the fasted state) is roughly 74%. Besides, the Cmax was 442 ng/mL in series [1] (human, plasma, fasted); 196 ng/mL in series [1] (setting [4]); 2720 ng/mL in series [2] (female, females); 3170 ng/mL in series [2] (male, males); 2680 ng/mL in series [3] (female, females); 2460 ng/mL in series [3] (male, males). The AUC(0-t) in series [1] (human, plasma, fasted) came to 896 ng·h/mL; in series [1] (setting [4]), 641 ng·h/mL. In addition, the no observed adverse effect level (NOAEL) at 28 days in series [2] (28-day toxicity study) was 125 mg/kg/day; in series [3] (28-day toxicity study, read-out: no-observed-adverse-effect-level (NOAEL)), 50 mg/kg/day.

(Values after article PMC9065877, “Safety, tolerability and pharmacokinetics of the oligomer modulator anle138b with exposure levels sufficient for therapeutic efficacy in a murine Parkinson model: A randomised, double-blind, placebo-controlled phase 1a trial” (EBioMedicine, 2022).)
